According to patent US6150367A, “1-[4-arylpiperazin-1-yl]-3-[2-oxopyrrolidin/piperidin-1-yl]propanes and their use in medical treatments” (Council of Scientific & Industrial Research, priority 1997, dated 2000):

Legend:
anaesthetized cat = test: Effect on blood pressure and adrenaline vasopressure response in anaesthetized cat, i.v. (Table 2); assay type: in vivo; details: for inhibition at 2 µmol/kg / inhibition at 10 µmol/kg: Felis catus, iv
Description: (§1) (a) Cats (2.6-4.0 kg) of either sex anaesthetized with pentobarbitone sodium (40 mg/kg i.v.) and showing basal mean arterial blood plessure below 150 mm (Hg) were categorised as normotensive and ahove 150 mm Hg as hypertensive. Arterial blood pressure (EP) was recorded from one of the carotid artery through a stathum P23 DC pressure transducer and 7P1 low level DC preamplifier on a Grass Model P7 Polygraph, Signals from 7P1 preamplifier were used to trigger 7P4 Tachograph preamplifier for recording the heart rate (HR). Right femoral vein and Trachea were cannulated for intravenous injections and artificial ventilation respectively. Control responses to intravenous injection of noradrenaline (2-4 ug); acetyl choline (1-2 ug); histamine (1-2 ug) and isoprenaline (1-2 ug) were taken before and after the administration of test doses of each compounds.

[1] = test system: Langendorff perfused rat heart; test: Compound at reperfusion after brief (16 min.) ischemic insult (Table 3); details: 0.001 ug/ml at reperfusion
[2] = test system: histamine induced bronchoconstriction; test: Konzett and Rossler preparation, histamine induced bronchoconstriction; details: in vivo
From the text: (iv) Konzett and Rossler preparation:

[3] = Cardioprotective effect against myocardial stunning; details: in vivo
Normotensive cat = test: Effect on blood pressure, heart rate and adrenaline vasopressor response, anaesthetized normotensive cat; assay type: in vivo
Description: (§2) 2. Effect on blood pressure, heart rate and adrenaline vasopressor response of anaesthetized (pentobarbitone sodium 40 & 60 mg/kg i.p. in cat and rat respectively) normotensive & hypertensive rat & cat model preparations.
as §1

[4] = test system: Naturally occurring hypertensive cat; test: Effect on blood pressure, heart rate and adrenaline vasopressor response, anaesthetized naturally occurring hypertensive cat; assay type: in vivo
Description: as §2, §1

cat [5] = test: Comparative antihypertensive effect with clinically used antihypertensive drugs at 2 uMol/kg i.v. in cat; assay type: in vivo
From the text: (4) Comparative antihypertensive effect with clinically used antihypertensive drugs at 2 uMol/kg i.v. dose in cat

Isolated aortic strip = test: Isolated aortic strip, endothelin induced contraction
From the text: (i) Isolated aortic strip:

cat [6] = test: In vivo drug antagonism studies at 2 uMol dose i.v. in cat; details: 2 uMol i.v.
From the text: (B) In viva Drug antagonism studies at 2 uMol dose i.v. in cat: […]

[7] = test system: Isolated Guinea pig ileum; test: Isolated Guinea pig ileum preparation, antihistaminic activity; details: 0.5-5.0 ug/ml
[8] = test system: Langendorff perfused rat heart; test: Langendorff perfused rat heart, prolonged global ischemia, compound given at reperfusion (Table 1)
Description: Further, in Langendorff perfused rat heart preparation subjected to even upto […]. global ischemia, the compound at 0.001 ug/ml conc. given at the time of reperfusion revived normal rhythmic contraction started within […]. (Table 1) and incidence of reperfusion induced arrhythmia were abolished.

[9] = test system: Hypertensive rat model preparation; test: Effect on blood pressure, heart rate and adrenaline vasopressor response, hypertensive rat model preparation; assay type: in vivo
Description: as §2

Site of action: ICV = assay type: in vivo; details: dose 0.34-1.36
Spinal transected cat = test: Site of action: spinal transected cat; assay type: in vivo; details: dose 2-10 umol/kg i.d.
Rat aortic ring = Rat aortic ring preparation, NE induced contraction
From the text: (v) Rat aortic ring preparation:

[10] = 0.001 ug/ml at reperfusion, 90 min. ischemic insult
[11] = 10^-6 M, ischemic insult 45 min

With `O=C1CCCN1CCCN1CCN(c2ccccn2)CC1` [2-Pyridyl, n=1] the “Dur.” value (anaesthetized cat; 2.0 umol/kg i.v.) was 16 min, the “Dur.” value (anaesthetized cat; 10.0 umol/kg i.v.) was 43 min and the inhibition at 2 µmol/kg (anaesthetized cat; 2.0 umol/kg i.v.) was 40%. The inhibition at 10 µmol/kg (anaesthetized cat; 10.0 umol/kg i.v.) was -20 to 0%, the “Onset” value [1] was 2.0 min and the “Percentage recovery 15 min.” value [1] was 47.60%. The “Percentage recovery 30 min.” value [1] was 71.40%.
With `COc1ccccc1N1CCN(CCCN2CCCC2=O)CC1` [C6 H4-2-OCH3, n=1] the “Dur.” value (anaesthetized cat; 2.0 umol/kg i.v.) was 19 min, the “Dur.” value (anaesthetized cat; 10.0 umol/kg i.v.) was 67 min and the inhibition at 2 µmol/kg (anaesthetized cat; 2.0 umol/kg i.v.) was 47%. For the same molecule, the inhibition at 10 µmol/kg (anaesthetized cat; 10.0 umol/kg i.v.) was greater than 100%, the “Onset” value [1] was 2.0 min and the “Percentage recovery 15 min.” value [1] was 45.40%. For the same molecule, the “Percentage recovery 30 min.” value [1] was 59.09%.
In the case of `O=C1CCCN1CCCN1CCN(c2cccc(Cl)c2)CC1` [Example 2, 1-[4-(3-chlorophenyl)piperazin-1-yl]-3-[2-oxopyrrolidin-1-yl]propane], the “Percentage recovery 15 min.” value ([1]; listed as C6 H4 -3-C1, n=1) is reported as 50.00%, the “Percentage recovery 30 min.” value ([1]; listed as C6 H4 -3-C1, n=1) is reported as 88.80% and the “Onset” value ([1]; listed as C6 H4 -3-Cl, n=1) is reported as 3.0 min. For the same molecule, the “Percentage recovery 15 min.” value ([1]; listed as C6 H4 -3-Cl, n=1) was 31.50% and the “Percentage recovery 30 min.” value ([1]; listed as C6 H4 -3-Cl, n=1) was 39.40%.
With `O=C1CCCN1CCCN1CCN(c2ccc(Cl)cc2)CC1` [Example 3, 1-[4-(4-chlorophenyl)piperazin-1-yl]-3-[2-oxopyrrolidin-1-yl]propane] the “Percentage recovery 15 min.” value [1] was 87.50% and the “Percentage recovery 30 min.” value [1] was 120.80%.
With `O=C1CCCN1CCCN1CCN(c2cccc(F)c2)CC1` [Example 4, 1-[4-(3-fluorophenyl)piperazin-1-yl)-3-[2-oxopyrrolidin-1-yl]propane] the “Percentage recovery 15 min.” value [1] was 120.00% and the “Percentage recovery 30 min.” value [1] was 180.00%.
With `O=C1CCCN1CCCN1CCN(c2ccc(F)cc2)CC1` [Example 5, 1-[4-(4-fluorophenyl)piperazin-1-yl]-3-[2-oxopyrrolidin-1-yl]propane] the “antihistaminic activity against histamine induced bronchoconstriction” value [2] was “some antihistaminic activity”, the “cardioprotective effect against myocardial stunning” value [3] was “cardioprotective effect against myocardial stunning at a much smaller dose than antihypertensive dose” and the “B.P. Fall (%)” value (Normotensive cat; 10 uMol/kg i.d.) was 22%. The “B.P. fall Dur.” value (Normotensive cat; 10 uMol/kg i.d.) was 85 min, the “B.P. Fall (%)” value (Normotensive cat; 20 uMol/kg i.d.) was 21% and the “B.P. fall Dur.” value (Normotensive cat; 20 uMol/kg i.d.) was greater than 102.5 min. The “B.P. Fall (%)” value ([4]; 10 uMol/kg i.d.) was 16%, the “B.P. fall Dur.” value ([4]; 10 uMol/kg i.d.) was 110 min and the “B.P. Fall (%)” value ([4]; 20 uMol/kg i.d.) was 22%. For the same molecule, the “B.P. fall Dur.” value ([4]; 20 uMol/kg i.d.) was greater than 156.75 min, the “Dur.” value (cat [5]) was 25 min and the Endothelin induced contraction (Isolated aortic strip) was “inhibited significantly”. For the same molecule, the “Response to endothelin after washing the preparation” value (Isolated aortic strip; after washing) was “relaxation rather than contraction”, the “Percentage recovery 15 min.” value [1] was 81.25% and the “Percentage recovery 30 min.” value [1] was 78.12%. The “reduction of the fall in pressure” value (cat [6]; pretreatment with KATP blocker glibenclamide) was “only partially reduced”, the “alteration of antihypertensive effect” value (cat [6]; pretreatment with atropine sulphate, mepyramine maleate, propranolol or yohimbine) was “failed to alter” and the antihistaminic activity [7] was “significant antihistaminic activity”. The “Percentage recovery 15 min.” value [8, 10] was 81.25%, the “Percentage recovery 30 min.” value [8, 10] was 87.15% and the “incidence of reperfusion induced arrhythmia” value ([8]; 0.001 ug/ml at reperfusion, up to 90 min global ischemia) was “abolished”. The “B.P. Fall (%)” value ([9]; 5 uMol/kg i.d.) was 27%, the “B.P. fall Dur.” value ([9]; 5 uMol/kg i.d.) was 51 min and the Heart rate Pre treatment ([9]; 5 uMol/kg i.d.) was 350 beats/min. For the same molecule, the Heart rate post treatment ([9]; 5 uMol/kg i.d.) was 370 beats/min, the “B.P. Fall (%)” value ([9]; 10 uMol/kg i.d.) was 22% and the “B.P. fall Dur.” value ([9]; 10 uMol/kg i.d.) was 76 min. For the same molecule, the “B.P. Fall (%)” value ([9]; 20 uMol/kg i.d.) was 29%, the “B.P. fall Dur.” value ([9]; 20 uMol/kg i.d.) was 100 min and the “B.P. Fall (%)” value (Site of action: ICV) was 8-10%. For the same molecule, the “B.P. fall Dur.” value (Site of action: ICV) was 10 to 15 min, the “B.P. Fall (%)” value (Spinal transected cat) was 14-18% and the “B.P. fall Dur.” value (Spinal transected cat) was 15 to 30 min. The NE induced contraction (Rat aortic ring) was “inhibited”.
For `CCc1ccc(N2CCN(CCCN3CCCC3=O)CC2)cc1` [Example 6, 1-[4-(4-ethylphenyl)piperazin-1-yl]-3-[2-oxopyrrolidin-1-yl]propane], the “Percentage recovery 15 min.” value [1] was 103.03% and the “Percentage recovery 30 min.” value [1] was 60.60%.
For `CCc1ccccc1N1CCN(CCCN2CCCC2=O)CC1` [Example 7, 1-[4-(2-ethylphenyl)piperazin-1-Yl]-3-[2-oxopyrrolidin-1-yl]propane], the “Percentage recovery 15 min.” value [1] was 106.06% and the “Percentage recovery 30 min.” value [1] was 136.36%.
With `O=C1CCCCN1CCCN1CCN(c2cccc(C(F)(F)F)c2)CC1` [Example 14, 1-[4-(3-trifluoromethylphenyl)piperazin-1-yl]-3-[2-oxopiperidin-1-yl]propane] the “Dur. (min.)” value (anaesthetized cat; 10.0 umol/kg i.v.) was “Tr”.
For `COC(=O)C1=C(C)NC(C)=C(C(=O)OC)C1c1ccccc1[N+](=O)[O-]` [Nifedipine, reference compound], the “Percentage recovery 15 min.” value [8, 11] was 0.66% and the “Percentage recovery 30 min.” value [8, 11] was 0.0%.
